Experiments:
MAPT = assay: Regression / mixed model of Toxicity Index on MAPT SNP genotype of recipient subjects; type: in vivo, human; details: for Fixed effect Estimate, COL6_2 (MAPT_H1): TT=1, CC=0
Source text: The GENOMELAB SNPSTREAM™ (Beckman) was utilized to accommodate up to 92,000 genotypes per day. This automated, multiplexed system can process up to 48 SNPs in each well of an arrayed 384-well plate. The SNPSTREAM™ operates at a consistent cost per genotype or per sample, regardless of run throughput, allowing users to cost-effectively zero in on targets with low-throughput studies as well as conduct high-throughput analyses.
The SNPSTREAM™ Genotyping System features a protocol with three steps. The technology is based on single-based primer extension technology. The system's high sensitivity delivers results using as little as 2 ng of genomic DNA. SNPWARE™ reagent kits were used. The kits included ready-to-use reagents, all performed in the original PCR plate according to the manufacturer's instructions, and incorporated herein by reference in its entirety.
Multiplexed reactions were spatially resolved on a SNPWARE™ Tag Array plate. Each of the 384 wells in a plate contained 16 or 52 unique oligonucleotides of a known sequence, or tag. Each tag on the plate was complementary to one of the tags of the 12 or 48 extension primers, plus four controls to ensure accuracy. After transfer to the Tag Array plate, each SNP was hybridized to its complementary tag. SNPs were then identified by their position in the well.
The process involved a multiplex PCR followed by an annealing reaction of the oligonucleotide to the specific PCR product. Next the oligonucleotide was extended by a single base which was fluorescently labeled with a terminating NTP and finally detected by two-colored fluorescence specific for the allele.
For each SNP, the -PCRU and -PCRL primers were first used to amplify a relevant DNA fragment surrounding the target SNP site. The components per reaction were: H2O, 3.0 μl; 10× PCR Buffer II, 0.5 μl; MgCl2 (25 mM), 1.0 μl; dNTPs (2.5 mM each), 0.18 μl; PCR Primer Pool (2.5 μM each), 0.1 μl; AMPLITAQ GOLD™ (5 U/μl), 0.125 μl for a total volume of 5.0 μl per reaction.
Primer -SNPU or SNPL was then used for single-base extension reaction. The thermocycler program was as follows: Step 1: 96° C. for 3 min; Step 2: 94° C. for 20 sec; Step 3: 40° C. for 11 sec; and Step 5: return to step 2 59 times, and finally to hold at 4° C.
(§1) A preliminary data analysis focused on the relationship between the Toxicity Index and the recipient subjects' demographic/genetic information. […] Univariate linear regression analysis was conducted first to find significant covariates in predicting the Toxicity Index in one of five cycles, then multivariable analysis was used to determine the best model in fitting the data. A mixed model for repeated measurement was implemented in modeling Toxicity Index in the first five cycles, and also in all cycles. Autoregressive covariance structure was used in the mixed model. SAS and Minitab were used in the analysis.
(§2) Covariates in the analysis included recoded binary demographic variables (sex, race, site, grade, stage) and recoded binary genetic variables.
(§3) Multivariable regression analysis was used to find the best model in predicting the Toxicity Index in each of the first five cycles.
(§4) A mixed model for repeated measurements was implemented to find the best model in fitting the longitudinal data. Autoregressive covariance structure was used in the mixed model. Toxicity Indexes in the first five cycles were included in the analysis.
(§5) To model Toxicity Indexes in all 21 cycles, a mixed model was used to find the best model. For the paclitaxel, Received dose and MAPT_H14 were significant fixed effects in predicting the longitudinal Toxicity Index in all cycles.

[1] = Regression / mixed model of Toxicity Index on demographic variables and received dose; type: in vivo, human
Description: as §1, §2, §3, §4, §5

CC(=O)O[C@@]12CO[C@@H]1C[C@H](O)[C@@]1(C)C(=O)[C@H](O)C3=C(C)[C@@H](OC(=O)[C@H](O)[C@@H](NC(=O)OC(C)(C)C)c4ccccc4)C[C@@](O)([C@@H](OC(=O)c4ccccc4)[C@H]21)C3(C)C (relative stereo) [Docetaxel, Benzenepropanoic acid, β-(((1,1-dimethylethoxy)carbonyl)amino)-α-hydroxy-, 12b-(acetyloxy)-12-(benzoyloxy)-2a,3,4,4a,5,6,9,10,11,12,12a,12b-dodecahydro-4,6,11-trihydroxy-4a,8,13,13-tetramethyl-5-oxo-7,11-methano-1H-cyclodeca(3,4)benz(1,2-b)oxet-9-yl ester trihydrate, (2aR-(2aα,4β,4aβ,6β,9(αR*,βS),11α,12α,12aα,12bα))-]
Fixed effect Estimate, COL6_2 (MAPT_H1) (MAPT; mixed model, longitudinal Toxicity Index in all cycles, Pr > |t| 0.0029): 1.1286 | Fixed effect Estimate, COL6_2 (MAPT_H1) (MAPT; mixed model, longitudinal Toxicity Index in first five cycles, Pr > |t| 0.0170): 1.1407 | Para. Est., TI4 vs MAPT_H2 (multivariable) (MAPT; multivariable analysis best model, cycle 4, rs17652121, TT = 1, CC/TC = 0, P-value 0.029): −0.900 | Para. Est., TI3 vs MAPT_H13 (multivariable) (MAPT; multivariable regression with Site, cycle 3, rs3785883, GG = 1, AG = 0, P-value 0.003): 1.408 | Para. Est., TI3 vs MAPT_H1_H21 (MAPT; univariate linear regression, cycle 3, rs754512, AA = 1, TA/TT = 0, P-value 0.010): −1.107 | Para. Est., TI3 vs MAPT_H1_H22 (MAPT; univariate linear regression, cycle 3, rs767058, AA = 1, AG/GG = 0, P-value 0.006): −1.166 | Para. Est., TI3 vs MAPT_H1_H23 (MAPT; univariate linear regression, cycle 3, rs2055794, GG = 1, AA/AG = 0, P-value 0.010): −1.107 | Para. Est., TI3 vs MAPT_H13 (MAPT; univariate linear regression, cycle 3, rs3785883, GG = 1, AG = 0, P-value 0.013): −1.245 | Para. Est., TI3 vs MAPT_H2 (MAPT; univariate linear regression, cycle 3, rs17652121, TT = 1, CC/TC = 0, P-value 0.006): −1.166 | Para. Est., TI4 vs MAPT_H1_H21 (MAPT; univariate linear regression, cycle 4, rs754512, AA = 1, TA/TT = 0, P-value 0.023): −0.953 | Para. Est., TI4 vs MAPT_H1_H22 (MAPT; univariate linear regression, cycle 4, rs767058, AA = 1, AG/GG = 0, P-value 0.029): −0.900 | Para. Est., TI4 vs MAPT_H1_H23 (MAPT; univariate linear regression, cycle 4, rs2055794, GG = 1, AA/AG = 0, P-value 0.023): −0.953 | Para. Est., TI4 vs MAPT_H2 (MAPT; univariate linear regression, cycle 4, rs17652121, TT = 1, CC/TC = 0, P-value 0.029): −0.900 | Fixed effect Estimate, Grade 2 ([1]; mixed model, longitudinal Toxicity Index in all cycles, Pr > |t| 0.0027): −0.9840 | Fixed effect Estimate, Grade 2 ([1]; mixed model, longitudinal Toxicity Index in first five cycles, Pr > |t| 0.0106): −1.0426 | Para. Est., TI3 vs Site (multivariable) ([1]; multivariable regression with MAPT_H13, cycle 3, Prostate Gland = 1, Others = 0, P-value 0.001): 2.365 | Para. Est., TI3 vs Grade ([1]; univariate linear regression, cycle 3, Poorly Dif = 1, Others = 0, P-value 0.006): −1.609 | Para. Est., TI3 vs Site ([1]; univariate linear regression, cycle 3, Prostate Gland = 1, Others = 0, P-value 0.046): 1.962

CC(=O)O[C@H]1C(=O)[C@@]2(C)[C@H]([C@H](OC(=O)c3ccccc3)[C@]3(O)C[C@H](OC(=O)[C@H](O)[C@@H](NC(=O)c4ccccc4)c4ccccc4)C(C)=C1C3(C)C)[C@]1(OC(C)=O)CO[C@@H]1C[C@@H]2O [Paclitaxel, (2aR,4S,4aS,6R,9S,11S,12S,12aR,12bS)-1,2a,3,4,4a,6,9,10,11,12,12a,12b-Dodecahydro-4,6,9,11,12,12b-hexahydroxy-4a,8,13,13-tetramethyl-7,11-methano-5H-cyclodeca(3,4)benz(1,2-b)oxet-5-one 6,12b-diacetate, 12-benzoate, 9-ester with (2R,3S)-N-benzoyl-3-phenylisoserine]
Fixed effect Estimate, COL18_3 (MAPT_H14) (MAPT; mixed model for repeated measurements, longitudinal Toxicity Index in first five cycles, Pr > |t| 0.0118): 0.8918 | Fixed effect Estimate, COL18_3 (MAPT_H14) (MAPT; mixed model, longitudinal Toxicity Index in all 21 cycles, Pr > |t| 0.0114): 0.6989 | Para. Est., TI3 vs MAPT_H14 (multivariable) (MAPT; multivariable analysis best model, cycle 3, rs242557, TC = 1, CC/TT = 0, P-value 0.012): 1.236 | Para. Est., TI1 vs MAPT_H14 (MAPT; univariate linear regression, cycle 1, rs242557, TC = 1, CC/TT = 0, P-value 0.016): 1.151 | Para. Est., TI3 vs MAPT_H14 (MAPT; univariate linear regression, cycle 3, rs242557, TC = 1, CC/TT = 0, P-value 0.012): 1.236 | Fixed effect Estimate, Received Dose2 ([1]; mixed model, longitudinal Toxicity Index in all 21 cycles, Pr > |t| 0.0244): 0.002363

Source: patent US20090186361A1, “METHODS OF PREDICTING THE PHARMACEUTICAL TOXICITY OF TAXANES” (priority 2008, published 2009)
